The source of these data is US8314250B2, “Sultam derivatives” (Hoffmann-La Roche Inc., priority 2009, dated 2012).

SMILES strings stand for the structures. Counter-ions that a name gives are not always drawn.

One assay relates to HeLa cells. In words: CellTiter-Glo luminescent cell viability (cytotoxicity) assay. Type of assay: cell-based. The conditions noted are these: 10 μM test compound, 48 hours, inhibition of luminescence compared to control cells, 10 µM. As for the experimental part: Cytotoxicity was assessed using Promega's CellTiter-Glo® luminescent cell viability assay (Promega Corporation, Madison, Wis., USA) as described in Promega Technical Bulletin TB288, revised August 2008. The assay was performed in HeLa cells at a maximum concentration tested of 10 μM of test compound. This assay measures the amount of adenosine triphosphate (ATP) present as a way of quantifying the presence and degree of metabolic activity in cell cultures.
Viable Hela cells were plated at a density of 3000 cells/well in 96 wells in black, clear bottom plates. Cells were allowed to attach to the plate by incubating overnight at 37° C. Test compounds were diluted in DMSO then further diluted in 10% FBS media. Media was removed from the cell plates and 50 μL of the solution was added to each well manually with the exception of the control well, which contained the same volume of 10% FBS media which includes 1% DMSO. Cells were incubated in the presence of compound undisturbed for 48 hours at 37° C. After the 48 hour compound exposure, 50 μL of the pCellTiter Glo® reagent was added. The cell plates were agitated on a shaker for 2 minutes to help lyse the cells. The plate was covered and read for luminescence.
Percent inhibition was calculated as follows: PCT_INHIB=100*[(U−T)/U] Where U represents the Luminescence of wells containing untreated cells and
T represents the Luminescence of wells containing compound-treated cells
In general terms: Cellular ATP, detected with luciferase, serves as a proxy for viable cell number.
In the case of `COc1ccc(Cl)c(CN(Cc2cccc(CN3C(C(=O)NC45CC6CC(CC(C6)C4)C5)CCS3(=O)=O)c2)[C@H](CN(C)C)CC(C)(C)C)c1F` (single isomer, unassigned; epimer 2) [Example 34], the “Activity (PCT_INHIB @ 10 μM)” value stood at 97%.

The same assay, now with this note: Homo sapiens, HeLa, 48 h, 10 μM test compound, inhibition of luminescence compared to control cells, read-out: Activity (PCT_INHIB @ 10 μM).
Take `COc1ccc(Br)c(CN(Cc2cccc(CN3C(C(=O)N[C@H]4C[C@H]5C[C@@H]([C@@H]4C)C5(C)C)CCS3(=O)=O)c2)[C@H](CN(C)C)CC(C)(C)C)c1O` (stereo partly drawn) [Example 14, 2-(3-{[(6-Bromo-2-hydroxy-3-methoxy-benzyl)-((S)-1-dimethylaminomethyl-3,3-dimethyl-butyl)-amino]-methyl}-benzyl)-1,1-dioxo-1λ^6-isothiazolidine-3-carboxylic acid((1S,2S,3S,5R)-2,6,6-trimethyl-bicyclo[3.1.1]hept-3-yl)-amide trifluoroacetate salt]: the inhibition at 10 µM stood at 75%.
Still for that read-out and setting: the value for `COc1ccc(Cl)c(CN(Cc2cc(CN3C(C(=O)N[C@H]4C[C@H]5C[C@@H]([C@@H]4C)C5(C)C)CCS3(=O)=O)cc(N(C)C)c2)[C@H](CN(C)C)CC(C)(C)C)c1F` (stereo partly drawn) [Example 35, 2-(3-{[(6-Chloro-2-fluoro-3-methoxy-benzyl)-((S)-1-dimethylaminomethyl-3,3-dimethyl-butyl)-amino]-methyl}-5-dimethylamino-benzyl)-1,1-dioxo-1λ^6-isothiazolidine-3-carboxylic acid((1S,2S,3S,5R)-2,6,6-trimethyl-bicyclo[3.1.1]hept-3-yl)-amide, hydrochloride salt] was 86%.
The same measure, in the same setting: the value for `COc1ccc(Cl)c(CN(Cc2cccc(CN3C(C(=O)N4CCC(c5ccccc5)CC4)CCS3(=O)=O)c2)[C@H](CN(C)C)CC(C)(C)C)c1F` (stereo partly drawn) [Example 24, [2-(3-{[(6-Chloro-2-fluoro-3-methoxy-benzyl)-((S)-1-dimethylaminomethyl-3,3-dimethyl-butyl)-amino]-methyl}-benzyl)-1,1-dioxo-1λ^6-isothiazolidin-3-yl]-(4-phenyl-piperidin-1-yl)-methanone] was 96%.
The same measure, in the same setting: the value for `C[C@@H]1[C@@H](NC(=O)C2CCS(=O)(=O)N2Cc2cccc(CN(Cc3c(F)ccc(Br)c3F)[C@H](CN(C)C)CC(C)(C)C)c2)C[C@H]2C[C@@H]1C2(C)C` (stereo partly drawn) [Example 18, 2-(3-{[(3-Bromo-2,6-difluoro-benzyl)-((S)-1-dimethylaminomethyl-3,3-dimethyl-butyl)-amino]-methyl}-benzyl)-1,1-dioxo-1λ^6-isothiazolidine-3-carboxylic acid((1S,2S,3S,5R)-2,6,6-trimethyl-bicyclo[3.1.1]hept-3-yl)-amide trifluoroacetate salt] was 94%.
For `Cc1ccccc1-c1ccccc1CN(Cc1cccc(CN2C(C(=O)N[C@H]3C[C@H]4C[C@@H]([C@@H]3C)C4(C)C)CCS2(=O)=O)c1)[C@H](CN(C)C)CC(C)(C)C` (stereo partly drawn) [Example 11, 2-(3-{[((S)-1-Dimethylaminomethyl-3,3-dimethyl-butyl)-(2′-methyl-biphenyl-2 ylmethyl)-amino]-methyl}-benzyl)-1,1-dioxo-1λ^6-isothiazolidine-3-carboxylic acid((1S,2S,3S,5R)-2,6,6-trimethyl-bicyclo[3.1.1]hept-3-yl)-amide trifluoroacetate salt], the inhibition at 10 µM stood at 97%.
On to `Cc1ccc(CN(Cc2cccc(CN3C(C(=O)N[C@H]4C[C@H]5C[C@@H]([C@@H]4C)C5(C)C)CCS3(=O)=O)c2)[C@H](CN(C)C)CC(C)(C)C)c(O)c1` (stereo partly drawn) [Example 9, 2-(3-{[((S)-1-Dimethylaminomethyl-3,3-dimethyl-butyl)-(2-hydroxy-4-methylbenzyl)-amino]-methyl}-benzyl)-1,1-dioxo-1λ^6-isothiazolidine-3-carboxylic acid((1S,2S,3S,5R)-2,6,6-trimethyl-bicyclo[3.1.1]hept-3-yl)-amide trifluoroacetate salt], for which the inhibition at 10 µM was 96%.
Still for that read-out and setting: as for `COc1ccc(Cl)c(CN(Cc2cccc(CN3C(C(=O)NC4C5CC6CC(C5)CC4C6)CCS3(=O)=O)c2)[C@H](CN(C)C)CC(C)(C)C)c1F` (stereo partly drawn) [Example 30, 2-(3-{[(6-Chloro-2-fluoro-3-methoxy-benzyl)-((S)-1-dimethylaminomethyl-3,3-dimethyl-butyl)-amino]-methyl}-benzyl)-1,1-dioxo-1λ^6-isothiazolidine-3-carboxylic acid adamantan-2-ylamide], the figure is 96%.
Same read-out and setting: the value for `C[C@@H]1[C@@H](NC(=O)C2CCS(=O)(=O)N2Cc2cccc(CN(Cc3ccccc3Oc3ccc(F)cc3)[C@H](CN(C)C)CC(C)(C)C)c2)C[C@H]2C[C@@H]1C2(C)C` (stereo partly drawn) [Example 6, 2-[3-({((S)-1-Dimethylaminomethyl-3,3-dimethyl-butyl)-[2-(4-fluoro-phenoxy)-benzyl]-amino}-methyl)-benzyl]-1,1-dioxo-1λ^6-isothiazolidine-3-carboxylic acid((1S,2S,3S,5R)-2,6,6-trimethyl-bicyclo[3.1.1]hept-3-yl)-amide trifluoroacetate salt] was 82%.
On the same count and under the same terms, as for `C[C@@H]1[C@@H](NC(=O)C2CCS(=O)(=O)N2Cc2cccc(CN(Cc3ccccc3Oc3ccc(C#N)cc3)[C@H](CN(C)C)CC(C)(C)C)c2)C[C@H]2C[C@@H]1C2(C)C` (stereo partly drawn) [Example 16, 2-(3-{[[2-(4-Cyano-phenoxy)-benzyl]-((S)-1-dimethylaminomethyl-3,3-dimethyl-butyl)-amino]-methyl}-benzyl)-1,1-dioxo-1λ^6-isothiazolidine-3-carboxylic acid((1S,2S,3S,5R)-2,6,6-trimethyl-bicyclo[3.1.1]hept-3-yl)-amide trifluoroacetate salt], the figure is 97%; as for `Cc1ccc(O)c(CN(Cc2cccc(CN3C(C(=O)N[C@H]4C[C@H]5C[C@@H]([C@@H]4C)C5(C)C)CCS3(=O)=O)c2)[C@H](CN(C)C)CC(C)(C)C)c1` (stereo partly drawn) [Example 10, 2-(3-{[((S)-1-Dimethylaminomethyl-3,3-dimethyl-butyl)-(2-hydroxy-5-methyl-benzyl)-amino]-methyl}-benzyl)-1,1-dioxo-1λ^6-isothiazolidine-3-carboxylic acid((1S,2S,3S,5R)-2,6,6-trimethyl-bicyclo[3.1.1]hept-3-yl)-amide trifluoroacetate salt], 96%; as for `COc1ccc(Cl)c(CN(Cc2cccc(CN3C(C(=O)N[C@@H]4C[C@@H]5C[C@H]([C@H]4C)C5(C)C)CCS3(=O)=O)c2)[C@H](CN(C)C)CC(C)(C)C)c1F` (stereo partly drawn) [Example 19, 2-(3-{[(6-Chloro-2-fluoro-3-methoxy-benzyl)-((S)-1-dimethylaminomethyl-3,3-dimethyl-butyl)-amino]-methyl}-benzyl)-1,1-dioxo-1λ^6-isothiazolidine-3-carboxylic acid((1R,2R,3R,5S)-2,6,6-trimethyl-bicyclo[3.1.1]hept-3-yl)-amide], 73%.
Consider `C[C@@H]1[C@@H](NC(=O)C2CCS(=O)(=O)N2Cc2cccc(CN(Cc3c(F)cccc3Oc3ccccc3)[C@H](CN(C)C)CC(C)(C)C)c2)C[C@H]2C[C@@H]1C2(C)C` (stereo partly drawn) [Example 12, 2-(3-{[((S)-1-Dimethylaminomethyl-3,3-dimethyl-butyl)-(2-fluoro-6-phenoxy-benzyl)-amino]-methyl}-benzyl)-1,1-dioxo-1λ^6-isothiazolidine-3-carboxylic acid((1S,2S,3S,5R)-2,6,6-trimethyl-bicyclo[3.1.1]hept-3-yl)-amide trifluoroacetate salt], for which the inhibition at 10 µM was 96%.
Still for that read-out and setting: the value for `C[C@@H]1[C@@H](NC(=O)C2CCS(=O)(=O)N2Cc2cccc(CN(Cc3ccccc3I)[C@H](CN(C)C)CC(C)(C)C)c2)C[C@H]2C[C@@H]1C2(C)C` (stereo partly drawn) [Example 2, 2-(3-{[((S)-1-Dimethylaminomethyl-3,3-dimethyl-butyl)-(2-iodo-benzyl)-amino]-methyl}-benzyl)-1,1-dioxo-1λ^6-isothiazolidine-3-carboxylic acid((1S,2S,3S,5R)-2,6,6-trimethyl-bicyclo[3.1.1]hept-3-yl)-amide trifluoroacetate salt] was 50%; that for `COc1ccc(Cl)c(CN(Cc2cccc(CN3C(C(=O)N[C@H]4C[C@H]5C[C@@H]([C@@H]4C)C5(C)C)CCS3(=O)=O)c2)[C@@H](Cc2ccccc2)CN(C)C)c1F` (stereo partly drawn) [Example 21, 2-(3-{[(6-Chloro-2-fluoro-3-methoxy-benzyl)-((S)-1-dimethylaminomethyl-2-phenyl-ethyl)-amino]-methyl}-benzyl)-1,1-dioxo-1λ^6-isothiazolidine-3-carboxylic acid((1S,2S,3S,5R)-2,6,6-trimethyl-bicyclo[3.1.1]hept-3-yl)-amide] was 77%.
